Experimental findings from patent publication US20060063782A1, “3-Hetero arylmethoxy ! pyridines and their analogues as p38 map kinase inhibitors” (priority 2002, published 2006) are described below.

Molecules are shown by their SMILES. Where only a bound is given, the exact number is not on record here.

Sequence of p38 MAP kinase (Q16539 whole entry): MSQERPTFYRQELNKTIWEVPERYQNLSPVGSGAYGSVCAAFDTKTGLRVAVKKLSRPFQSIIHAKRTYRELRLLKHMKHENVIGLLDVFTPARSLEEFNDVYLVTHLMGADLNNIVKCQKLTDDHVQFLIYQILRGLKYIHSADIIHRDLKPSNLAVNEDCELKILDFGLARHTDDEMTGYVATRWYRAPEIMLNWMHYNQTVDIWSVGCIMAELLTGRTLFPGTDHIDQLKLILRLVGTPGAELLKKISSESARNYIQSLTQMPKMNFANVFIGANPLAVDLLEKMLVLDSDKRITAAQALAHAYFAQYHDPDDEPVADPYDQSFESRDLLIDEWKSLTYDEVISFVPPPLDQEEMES

The first assay addresses p38 MAP kinase (Homo sapiens, UniProt Q16539). In words: p38 MAP Kinase Assay (33P incorporation into myelin basic protein, filter plate). It is filed as biochemical. The conditions noted are these: Table 1; MKK6-activated p38, MBP substrate, 50 minutes.
As for `Nc1ncccc1OCc1c(F)cccc1Cl` [Compound 22], the half-maximal inhibitory concentration (IC50) is less than 1000 µM. Compound `O=C(Nc1ccc(Cl)c(COc2cccnc2)c1)c1ccnc(N2CCOCC2)c1` [Compound 44, N-[4-Chloro-3-(pyridin-3-yloxymethyl)-phenyl]-2-morpholin-4-yl-isonicotinamide] displayed an IC50 of less than 2 µM.

In turn, `O=C(Nc1cccc(COc2cccnc2)c1)c1ccccc1` [Compound 66, N-[3-(Pyridin-3-yloxymethyl)-phenyl]-benzamide] showed a half-maximal inhibitory concentration (IC50) of less than 200 µM. As to `Nc1ncccc1OCc1cccc(Cl)c1` [Compound 9, 2-amino-3-(3-chlorobenzyloxy)pyridine], the IC50 is less than 1000 µM. `O=C(Nc1ccc(F)c(COc2cccnc2)c1)c1cncc(N2CCOCC2)n1` [Compound 75, 6-Morpholin-4-yl-pyrazine-2-carboxylic acid [4-fluoro-3-(pyridin-3-yloxymethyl)-phenyl]-amide] yielded an IC50 of less than 20 µM. `COc1ccccc1COc1cccnc1N` [Compound 6, 2-amino-3-(2-methoxybenzyloxy)pyridine] gave a concentration for half-maximal inhibition (IC50) of less than 1000 µM. `Nc1ncccc1OCc1cccc(Cl)c1F` [Compound 27] registered an IC50 of less than 1000 µM. The same measure, in the same setting: next, `Clc1ncccc1OCc1ccccc1` [Compound 10, 3-Benzyloxy-2-chloropyridine]: less than 2000 µM; `O=C(Nc1ccc(F)c(COc2cccnc2)c1)c1cc(F)cc(N2CCOCC2)c1` [Compound 62, 3-Fluoro-N-[4-fluoro-3-(pyridin-3-yloxymethyl)-phenyl]-5-morpholin-4-yl-benzamide]: less than 2 µM.

The same assay, now with this note: Table 2; MKK6-activated p38, MBP substrate, 50 minutes.
The compound `CC(C)(C)c1cc(NC(=O)Oc2cccc(COc3cnccn3)c2)n(-c2ccccc2)n1` [Compound 142] displayed an IC50 of less than 200 µM.

`Cc1ccc(-n2nc(C(C)(C)C)cc2NC(=O)Nc2ccc(F)c(COc3cnccn3)c2)cc1` [Compound 130, 1-(5-tert-Butyl-2-p-tolyl-2H-pyrazol-3-yl)-3-[4-fluoro-3-(pyrazin-2-yloxymethyl)-phenyl]-urea]: the concentration for half-maximal inhibition (IC50) is less than 2 µM. Same read-out and setting: next, `O=C(Nc1ccc(F)c(COc2cnccn2)c1)Oc1cccc(C(F)(F)F)c1` [Compound 99, [4-Fluoro-3-(pyrazin-2-yloxymethyl)-phenyl]-carbamic acid 3-trifluoromethyl-phenyl ester]: less than 20 µM; `CCN(CC)C(=O)Nc1cnc(OCc2c(Cl)cccc2Cl)cn1` [Compound 114]: less than 200 µM. Same read-out and setting: next, `O=C(Nc1ccccc1)Oc1cccc(COc2cnccn2)c1` [Compound 107, Phenyl-carbamic acid 3-(pyrazin-2-yloxymethyl)-phenyl ester]: less than 200 µM; `CC(C)(CO)NC(=O)c1cnc(OCc2c(Cl)cccc2Cl)cn1` [Compound 113, 5-(2,6-Dichloro-benzyloxy)-pyrazine-2-carboxylic acid (2-hydroxy-1,1-dimethyl-ethyl)-amide]: less than 20 µM; `O=C(NCCO)c1cnc(OCc2c(Cl)cccc2Cl)cn1` [Compound 112, 5-(2,6-Dichloro-benzyloxy)-pyrazine-2-carboxylic acid (2-hydroxy-ethyl)-amide]: less than 1000 µM. In turn, `CC(C)(C)c1csc(NC(=O)Nc2ccc(F)c(COc3cnccn3)c2)n1` [Compound 100, 1-(4-tert-Butyl-thiazol-2-yl)-3-[4-fluoro-3-(pyrazin-2-yloxymethyl)-phenyl]-urea] yielded a half-maximal inhibitory concentration (IC50) of less than 20 µM. With `CC(C)(C)c1cc(C(=O)Nc2ccc(F)c(COc3cnccn3)c2)n(Cc2ccccc2)n1` [Compound 135, 2-Benzyl-5-tert-butyl-2H-pyrazole-3-carboxylic acid [4-fluoro-3-(pyrazin-2-yloxymethyl)-phenyl]-amide], the IC50 is less than 20 µM. The same measure, in the same setting: as for `O=C(Nc1ccc(F)c(COc2cnccn2)c1)Nc1cc(C2CCCO2)nn1-c1ccc(F)cc1` (centres unmarked) [Compound 161, 1-[2-(4-Fluoro-phenyl)-5-(tetrahydro-furan-2-yl)-2H-pyrazol-3-yl]-3-[4-fluoro-3-(pyrazin-2-yloxymethyl)-phenyl]-urea], the figure is less than 2 µM. In the case of `O=C(Nc1cnc(OCc2c(Cl)cccc2Cl)cn1)N1CCOCC1` [Compound 175], the IC50 is less than 2 µM.
